Test results reported in patent publication US11149031B2, “Substituted N-(3-fluoropropyl)-pyrrolidine compounds, processes for their preparation and therapeutic uses thereof” (SANOFI, priority 2016, dated 2021).
Like-named read-outs stand apart in the source and are kept apart here.

What was measured:
[1] = test system: MCF7 cells expressing mutant estrogen receptor Tyr 537 Ser; test: Test B: cell proliferation/viability assay (CellTiter-Glo) on MCF7 Tyr 537 Ser mutant; type: cell-based; conditions: Homo sapiens, MCF7, 168 h, MCF7 cells expressing ER Tyr 537 Ser mutant, 7 days of compound exposure, read-out: proliferation MCF7 Y537S IC50
In short: (§1)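 Parental MCF7 or MCF7 lines transfected with Tyr 537 Ser or Asp 538 Gly ER mutants (selected for estradiol-independent growth) were grown in phenol red-free MEM with 5% charcoal dextran-stripped FBS. Cells were treated with 9-point 1:5 dilutions (3-0.000001 μM final) for 7 days, then read by CellTiter-Glo luminescence.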

[2] = test system: MCF7 cells expressing mutant estrogen receptor Asp 538 Gly; test: Test B: cell proliferation/viability assay (CellTiter-Glo) on MCF7 Asp 538 Gly mutant; type: cell-based; conditions: Homo sapiens, MCF7, 168 h, MCF7 cells expressing ER Asp 538 Gly mutant, 7 days of compound exposure, read-out: proliferation MCF7 D538G IC50
In short: as §1

[3] = target: His6-ERα298-554 WT (ERα ligand-binding domain) (Homo sapiens (Human), UniProt P03372); test: Test A: biochemical antagonist activity, LanthaScreen TR-FRET ERα coactivator assay, WT; conditions: read-out: Antagonism WT IC50
In short: (§2)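 His6-ERα LBD (0.5 nM) with 0.5 nM Tb-anti-His6 antibody, 250 nM PGC1a peptide and 3 nM (or 10 nM) estradiol in 100 mM potassium phosphate pH 7.4 with 5 mM DTT, incubated overnight at room temperature with compound.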

[4] = target: ERα in MCF7 cells (Homo sapiens (Human), UniProt P03372); test: Test C: estrogen receptor degradation activity, ERα in cell western assay in MCF7 cells; type: cell-based; conditions: for DC50: 4 hours post compound addition, ERα in cell western, read-out: Degradation IC50; for % Degradation at 3 μM: 4 hours, relative to fulvestrant
In short: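 MCF7 cells in phenol red-free MEM alpha with 5% charcoal-dextran stripped FBS were treated 4 h with compound (9-point 1:5 dilutions, 3–0.000018 μM final; fulvestrant 0.1 μM as positive control). Fixed cells were immunostained for ERα (Alexa 488) and counterstained with Syto-64 for DNA.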

[5] = target: His6-ERα298-554 D538G mutant (ERα ligand-binding domain) (Homo sapiens (Human), UniProt P03372, D538G); test: Test A: biochemical antagonist activity, LanthaScreen TR-FRET ERα coactivator assay, D538G mutant; conditions: read-out: Antagonism D538G IC50
In short: as §2

[6] = target: His6-ERα298-554 Y537S mutant (ERα ligand-binding domain) (Homo sapiens (Human), UniProt P03372, Y537S); test: Test A: biochemical antagonist activity, LanthaScreen TR-FRET ERα coactivator assay, Y537S mutant; conditions: read-out: Antagonism Y537S IC50
In short: as §2

[7] = test system: MCF7 cells (breast tumor cells) WT; test: Test B: cell proliferation/viability assay (CellTiter-Glo) on MCF7 WT; type: cell-based; conditions: Homo sapiens, MCF7, 168 h, 7 days of compound exposure
In short: as §1

[8] = asterisk (*): protocol using 10 nM estradiol

Sequence of His6-ERα298-554 Y537S mutant (ERα ligand-binding domain) (P03372 298-554 Y537S): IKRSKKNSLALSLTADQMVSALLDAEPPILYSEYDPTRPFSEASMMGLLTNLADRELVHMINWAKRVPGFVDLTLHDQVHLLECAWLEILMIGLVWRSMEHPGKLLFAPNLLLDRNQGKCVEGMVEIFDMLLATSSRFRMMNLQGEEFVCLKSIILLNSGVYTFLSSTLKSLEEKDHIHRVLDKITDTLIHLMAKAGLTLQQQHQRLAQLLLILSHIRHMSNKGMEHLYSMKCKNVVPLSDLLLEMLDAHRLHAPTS
Sequence of His6-ERα298-554 WT (ERα ligand-binding domain) (P03372 298-554): as the sequence (P03372 298-554 Y537S) above, with S240Y counted along it
Sequence of ERα in MCF7 cells (P03372 whole entry): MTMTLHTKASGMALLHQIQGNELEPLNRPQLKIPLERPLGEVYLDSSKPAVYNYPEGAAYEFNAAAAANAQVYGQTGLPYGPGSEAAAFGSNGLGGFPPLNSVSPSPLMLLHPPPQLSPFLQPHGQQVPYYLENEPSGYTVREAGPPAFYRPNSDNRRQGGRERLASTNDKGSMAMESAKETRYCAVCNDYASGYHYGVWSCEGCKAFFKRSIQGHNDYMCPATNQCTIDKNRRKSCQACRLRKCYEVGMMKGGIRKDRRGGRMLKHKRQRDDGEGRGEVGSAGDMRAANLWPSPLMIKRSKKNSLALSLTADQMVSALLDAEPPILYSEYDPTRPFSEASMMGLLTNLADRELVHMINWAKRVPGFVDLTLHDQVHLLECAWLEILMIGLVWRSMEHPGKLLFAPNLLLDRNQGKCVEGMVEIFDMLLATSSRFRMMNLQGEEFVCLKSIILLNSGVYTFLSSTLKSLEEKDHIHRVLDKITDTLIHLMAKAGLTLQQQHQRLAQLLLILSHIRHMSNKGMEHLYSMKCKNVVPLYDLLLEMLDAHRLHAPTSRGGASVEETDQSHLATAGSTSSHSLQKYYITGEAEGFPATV
Sequence of His6-ERα298-554 D538G mutant (ERα ligand-binding domain) (P03372 298-554 D538G): as the sequence (P03372 298-554 Y537S) above, with S240Y, D241G counted along it

Row | Compound | IC50 [1] [nM] | IC50 [2] [nM] | IC50 ([3]; protocol with 3 nM estradiol) [nM] | DC50 [4] [nM] | % Degradation at 3 μM [4] [%] | IC50 ([5]; protocol with 3 nM estradiol) [nM] | IC50 ([6]; protocol with 3 nM estradiol) [nM] | IC50 [7] [nM] | IC50 [3, 8] [nM] | IC50 [5, 8] [nM] | IC50 [6, 8] [nM]
1 | Oc1ccc2c(c1)OCCC(c1cccc3[nH]ccc13)=C2c1ccc(O[C@H]2CCN(CCCF)C2)cc1 [Example 110, 5-[4-[(3S)-1-(3-fluoropropyl)pyrrolidin-3-yl]oxyphenyl]-4-(1H-indol-4-yl)-2,3-dihydro-1-benzoxepin-8-ol] | 45 | 6 | 5 | 0.2 | 87 | 39 | 26 | 1 |  |  | 
2 | CC1Cc2cc(C3=C(c4ccc(O[C@H]5CCN(CCCF)C5)cc4)c4ccc(O)cc4SCC3)ccc2O1 (stereo partly drawn) [Example 197, 5-[4-[(3S)-1-(3-fluoropropyl)pyrrolidin-3-yl]oxyphenyl]-4-(2-methyl-2,3-dihydrobenzofuran-5-yl)-2,3-dihydro-1-benzothiepin-8-ol] | 5 | 0.6 |  | 0.2 | 88 |  |  | 0.3 | 1 | 20 | 13
3 | Cc1ccc(C2=C(c3ccc(O[C@H]4CCN(CCCF)C4)cc3)c3cc(F)c(O)cc3OCC2)c(F)c1 [Example 138, 7-fluoro-4-(2-fluoro-4-methyl-phenyl)-5-[4-[(3S)-1-(3-fluoropropyl)pyrrolidin-3-yl]oxyphenyl]-2,3-dihydro-1-benzoxepin-8-ol] | 51 | 7 | 18 | 0.5 | 89 | 360 | 253 | 2 |  |  | 
4 | Cc1noc(C)c1C1=C(c2ccc(O[C@H]3CCN(CCCF)C3)cc2)c2ccc(O)cc2SCC1 [Example 219, 4-(3,5-dimethylisoxazol-4-yl)-5-[4-[(3S)-1-(3-fluoropropyl)pyrrolidin-3-yl]oxyphenyl]-2,3-dihydro-1-benzothiepin-8-ol] | 2 | 0.4 |  | 0.2 | 90 |  |  | 0.1 | 12 | 233 | 149
5 | CCOc1cc(F)c(C2=C(c3ccc(O[C@H]4CCN(CCCF)C4)cc3)c3ccc(O)cc3SC2)cc1F [Example 40, 3-(4-ethoxy-2,5-difluoro-phenyl)-4-[4-[(3S)-1-(3-fluoropropyl)pyrrolidin-3-yl]oxyphenyl]-2H-thiochromen-7-ol] | 20 | 2 |  | 0.2 | 81 |  |  | 1 | 44 | 901 | 605
6 | CCOc1nccc(C2=C(c3ccc(O[C@H]4CCN(CCCF)C4)cc3)c3ccc(O)cc3SC2)c1Cl [Example 53, 3-(3-chloro-2-ethoxy-4-pyridyl)-4-[4-[(3S)-1-(3-fluoropropyl)pyrrolidin-3-yl]oxyphenyl]-2H-thiochromen-7-ol] | 5 | 0.2 |  | 0.2 | 84 |  |  | 0.2 | 2 | 36 | 25
7 | Oc1ccc2c(c1)SCC(c1ccc(C(F)F)cc1F)=C2c1ccc(O[C@H]2CCN(CCCF)C2)cc1 [Example 62, 3-[4-(difluoromethyl)-2-fluoro-phenyl]-4-[4-[(3S)-1-(3-fluoropropyl)pyrrolidin-3-yl]oxyphenyl]-2H-thiochromen-7-ol] | 6 | 0.2 |  | 0.2 | 80 |  |  | 0.4 | 27 | 523 | 271
8 | Oc1cc2c(cc1F)C(c1ccc(O[C@H]3CCN(CCCF)C3)cc1)=C(c1ccc3occc3c1)CCO2 [Example 156, 4-(benzofuran-5-yl)-7-fluoro-5-[4-[(3S)-1-(3-fluoropropyl)pyrrolidin-3-yl]oxyphenyl]-2,3-dihydro-1-benzoxepin-8-ol] | 14 | 2 |  | 0.4 | 85 |  |  | 0.6 | 19 | 409 | 254
9 | CCOc1ccc(C2=C(c3ccc(O[C@H]4CCN(CCCF)C4)cc3)c3ccc(O)cc3SC2)c(F)c1 [Example 26, 3-(4-ethoxy-2-fluoro-phenyl)-4-[4-[(3S)-1-(3-fluoropropyl)pyrrolidin-3-yl]oxyphenyl]-2H-thiochromen-7-ol] | 10 | 2 | 3 | 0.8 | 90 | 67 | 39 | 0.9 |  |  | 
10 | Oc1ccc2c(c1)CCCC(c1ccc(OC(F)(F)F)cc1)=C2c1ccc(O[C@H]2CCN(CCCF)C2)nc1 [Example 253, 5-[6-[(3S)-1-(3-fluoropropyl)pyrrolidin-3-yl]oxy-3-pyridyl]-6-[4-(trifluoromethoxy)phenyl]-8,9-dihydro-7H-benzo[7]annulen-2-ol] | 2 | 0.1 |  | 0.2 | 85 |  |  | 0.1 | 7 | 155 | 95
11 | CCOc1ccc(C2=C(c3ccc(O[C@H]4CCN(CCCF)C4)cc3)c3ccc(O)cc3SC2)c(F)c1Cl [Example 63, 3-(3-chloro-4-ethoxy-2-fluoro-phenyl)-4-[4-[(3S)-1-(3-fluoropropyl)pyrrolidin-3-yl]oxyphenyl]-2H-thiochromen-7-ol] | > 999 | 5 |  | 0.3 | 86 |  |  | 5 | 318 | > 4000 | 2450
12 | CCOc1ccc(C2=C(c3ccc(O[C@H]4CCN(CCCF)C4)cc3)c3ccc(O)cc3OCC2)c(C)c1 [Example 119, 4-(4-ethoxy-2-methyl-phenyl)-5-[4-[(3S)-1-(3-fluoropropyl)pyrrolidin-3-yl]oxyphenyl]-2,3-dihydro-1-benzoxepin-8-ol] | 5 | 0.5 | 2 | 1 | 91 | 10 | 6 | 0.6 |  |  | 
13 | Oc1ccc2c(c1)SCC(c1ccc(CF)cc1)=C2c1ccc(O[C@H]2CCN(CCCF)C2)cc1 [Example 61, 3-[4-(fluoromethyl)phenyl]-4-[4-[(3S)-1-(3-fluoropropyl)pyrrolidin-3-yl]oxyphenyl]-2H-thiochromen-7-ol] | 17 | 0.6 |  | 0.2 | 82 |  |  | 2 | 37 | 686 | 437
14 | Oc1ccc2c(c1)SCC(c1ccc3c(c1)OCCO3)=C2c1ccc(O[C@H]2CCN(CCCF)C2)cc1 [Example 28, 3-(2,3-dihydro-1,4-benzodioxin-6-yl)-4-[4-[(3S)-1-(3-fluoropropyl)pyrrolidin-3-yl]oxyphenyl]-2H-thiochromen-7-ol] | 11 | 2 |  | 0.3 | 80 |  |  | 0.7 | 4 | 68 | 41
